How the values were obtained:
HBL-100 (breast) = test: Antiproliferative activity, HBL-100; format: cell-based, human; conditions: for GI50: Homo sapiens
Procedure: (§1) The in vitro antiproliferative activity of investigated compounds was evaluated against six human solid tumor cell lines: A549 (non-small cell lung), HBL-100, (breast), HeLa (cervix), SW1573 (non-small cell lung), as drug sensitive lines, T-47D (breast) and WiDr (colon) as drug resistant lines. These cell lines were a kind gift from Prof. G. J. Peters (VU Medical Center, Amsterdam, The Netherlands). For selectivity studies, the human fibroblasts BJ-hTert cell line was used, which was obtained from Dr. R. Freire (HUC, Tenerife, Canary Islands). Cells were kept in culture medium under standard conditions: RPMI 1640 medium, fetal bovine serum (5%), glutamine (2 mM), penicillin G (100 units/mL) and streptomycin (0.1 mg/mL). Antiproliferative tests were conducted as described earlier (Skehan et al., [1990]; Miranda et al., [2006]). Tested compounds were dissolved in DMSO at an initial concentration of 40 mM. DMSO was used as negative control (0.25% v/v). Antiproliferative activity of the compounds was expressed as GI50, which is the concentration of the compound that inhibits 50% of the culture growth.

WiDr (colon) = test: Antiproliferative activity, WiDr; format: cell-based, human; conditions: for GI50: Homo sapiens
Procedure: as §1

[1] = tested on: SW1573 (non-small cell lung); test: Antiproliferative activity, SW1573; format: cell-based, human; conditions: for GI50: Homo sapiens
Procedure: as §1

[2] = DPPH scavenging antioxidant assay; conditions: concentration providing 50% of radicals scavenging activity; mean ± SD, n = 3
Procedure: The experiments were performed according to the literature protocol (Prior et al., [2005]). All tested compounds were initially dissolved in DMSO. The initial concentration of DPPH in methanol was 6.58 × 10^−5 M. A volume of 140 μL of DPPH solution was placed into a 96-well microplate, and then 10 μL solution of the tested compounds was added. Pure DMSO (10 μL) was used as the control. The absorbance at 517 nm was measured after 30 min period of incubation in the dark at 25°C. The Equation (1) was used for calculation of the scavenging activity:
(1) Scavenging activity (%)=Acontrol- Asample/Acontrol×100
where Asample and Acontrol refer to the absorbances at 517 nm of the sample and control, respectively. IC50 values were calculated from the graph of scavenging activity against the concentrations of the samples. IC50 represents the total antioxidant concentration of the sample which decreases the amount of the initial DPPH radical by 50%. Ascorbic acid (vitamin C) was used as positive control (concentration range 10–500 μM).

[3] = tested on: human fibroblasts BJ-hTert cell line; test: Selectivity, non-transformed fibroblasts BJ-hTert; format: cell-based; conditions: Fibroblast; BJ-hTert normal human cell line; concentrations up to 100 μM
Procedure: as §1

MAO A = target: T1, MAO A (Homo sapiens, UniProt P21397); test: MAO A inhibition, discontinuous fluorimetric kynuramine assay; format: biochemical; conditions: for inhibition at 1 µM: 1 μM inhibitor, mean ± SD, n = 2, normalized to control
T1 construct: purchased Sigma-Aldrich
T1 sequence (P21397 1-527): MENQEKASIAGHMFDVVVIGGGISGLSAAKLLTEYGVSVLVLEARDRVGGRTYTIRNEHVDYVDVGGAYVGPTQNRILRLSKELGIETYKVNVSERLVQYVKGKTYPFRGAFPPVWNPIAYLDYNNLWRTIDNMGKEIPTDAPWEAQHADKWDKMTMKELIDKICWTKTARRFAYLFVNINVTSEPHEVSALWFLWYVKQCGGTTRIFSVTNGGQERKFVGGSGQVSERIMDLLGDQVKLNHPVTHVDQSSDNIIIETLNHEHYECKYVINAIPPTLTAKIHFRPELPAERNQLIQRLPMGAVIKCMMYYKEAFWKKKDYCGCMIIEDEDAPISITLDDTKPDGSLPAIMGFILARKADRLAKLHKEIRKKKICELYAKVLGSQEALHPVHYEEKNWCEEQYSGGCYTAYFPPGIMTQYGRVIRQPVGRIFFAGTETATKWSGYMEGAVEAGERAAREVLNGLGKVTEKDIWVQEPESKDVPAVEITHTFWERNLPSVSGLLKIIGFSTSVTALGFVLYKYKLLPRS
Procedure: MAO A and B inhibition capacities were investigated using a discontinuous fluorimetric assay (Meiring et al., [2013]) as described previously by using human recombinant membrane-bound MAO purchased from Sigma-Aldrich (Affini et al., [2018]). Briefly, remained enzyme activity with inhibitor, either 1 μM (one-point) or concentrations ranging from 0.0001 to 10 μM, was assessed in the presence of kynuramine [2 × KM, KM = 20 μM (MAO A), KM = 30 μM (MAO B)] in potassium phosphate buffer (pH 7.4). Reactions were started by addition of enzyme and stopped by manual addition of sodium hydroxide (2 N) after 20 min. Enzyme activity was determined by detection of 4-hydroxyquinoline (λEx = 320 nm, λEm = 405 nm). Data were analyzed using GraphPad PRISM 6. For one-point measurements data were calculated as percentage of control and expressed as mean ± standard deviation (%). […] Data were obtained from two (one-point measurements) or at least three (IC50 values) independent experiments, each performed in duplicates.

HeLa (cervix) = test: Antiproliferative activity, HeLa; format: cell-based, human; conditions: for GI50: Homo sapiens
Procedure: as §1

[4] = Total reducing power (TRP), modified potassium ferricyanide reduction method; conditions: concentration providing 0.500 of absorbance at 700 nm; mean ± SD, n = 3
Procedure: The mixture containing 0.5 mL of phosphate buffer (0.2 M, pH = 6.6), 0.5 mL of K3[Fe(CN)6] (1%; w/v) and 0.5 mL of the samples (100–1,500 μM) was incubated at 50°C for 20 min. A volume of 0.5 mL of trichloroacetic acid (TCA, 10%; w/v), 0.5 mL of Milli-Q water and 0.5 mL of FeCl3 (0.1%; w/v) was added, followed by intensive vortexing. The absorbance of the resulting mixture was measured after 60 min at 700 nm using phosphate buffer as blank (Oyaizu, [1986]).
Volume of 0.4 mL of sample solution (50–1,000 μM) was mixed with 1.6 mL of reagent solution [0.6 M H2SO4, 28 mM Na3PO4, and 4 mM (NH4)2MoO4] and resulting mixtures were incubated at 95°C for 90 min. The cooled reaction mixtures were then centrifuged for 10 min (3,000 rpm). The absorbance of the supernatant solution was measured, 1 h after centrifugation, at 695 nm against reagent solution as blank. An increased absorbance in reading in both assays indicated increased antioxidant power, expressed as EC50 values (the sample concentration giving absorbance of 0.500 from the graph of absorbance at 700 nm or 695 nm against compound concentration) (Prieto et al., [1999]).

[5] = tested on: A549 (non-small cell lung); test: Antiproliferative activity, A549; format: cell-based, human; conditions: for GI50: Homo sapiens
Procedure: as §1

T-47D (breast) = test: Antiproliferative activity, T-47D; format: cell-based, human
Procedure: as §1

| Structure (SMILES) | antiproliferative activity class HBL-100 (HBL-100 (breast)) | GI50 (HBL-100 (breast)) | antiproliferative activity class WiDr (WiDr (colon)) | GI50 (WiDr (colon)) | antiproliferative activity class SW1573 [1] | GI50 [1] | IC50 [2] | GI50 [3] | inhibition at 1 µM (MAO A) | IC50 (MAO A; mean, 95% CI, at least three experiments) | antiproliferative activity class HeLa (HeLa (cervix)) | GI50 (HeLa (cervix)) | EC50 [4] | antiproliferative activity class A549 [5] | GI50 [5] | GI50 (T-47D (breast); Homo sapiens, T47D) | antiproliferative activity class T-47D (T-47D (breast); T-47D) | GI50 (T-47D (breast); Homo sapiens, T47D, T-47D) | GI50 (T-47D (breast); T-47D) |
| --- | --- | --- | --- | --- | --- | --- | --- | --- | --- | --- | --- | --- | --- | --- | --- | --- | --- | --- | --- |
| C(=NNc1nc(-c2ccccc2)c[se]1)c1ccccc1 [Compound 1, 2-(2-benzylidenehydrazinyl)-4-phenyl-1,3-selenazole] | moderate activity (moderate activity (GI50 = 10–100 μM)) | 91 ± 12 µM | good activity (good activity (GI50 = 1–10 μM)) | 4.8 ± 0.8 µM | moderate activity (moderate activity (GI50 = 10–100 μM)) | 24 ± 8 µM | 8.63 ± 1.66 µM | > 100 µM | -6.8 ± 12.6% | > 10 µM | moderate activity (moderate activity (GI50 = 10–100 μM)) | 41 ± 9.5 µM | 990 ± 92 µM | moderate activity (moderate activity (GI50 = 10–100 μM)) | 28 ± 7.1 µM | 6.4 ± 0.9 µM | good activity (good activity (GI50 = 1–10 μM)) | – | – |
| COc1ccc(-c2c[se]c(NN=Cc3ccccc3)n2)cc1 [Compound 1-OMe, 2-(2-benzylidenehydrazinyl)-4-(4-methoxyphenyl)-1,3-selenazole] | – | > 100 µM | – | > 100 µM | – | 42 ± 7.7 µM | 54.3 ± 4.54 µM | > 100 µM | 32.4 ± 3.3% | – | – | > 100 µM | 806 ± 85 µM | – | > 100 µM | – | – | > 100 µM | – |
| O=[N+]([O-])c1ccccc1C=NNc1nc(-c2ccccc2)c[se]1 [Compound 2, 2-(2-(2-nitrobenzylidene)hydrazinyl)-4-phenyl-1,3-selenazole] | – | 21 ± 8.6 µM | good activity (good activity (GI50 = 1–10 μM)) | 5 ± 0.9 µM | good activity (good activity (GI50 = 1–10 μM)) | 5.3 ± 0.6 µM | 21.9 ± 5.6 µM | > 100 µM | 26.5 ± 3.7% | – | good activity (good activity (GI50 = 1–10 μM)) | 6 ± 0.7 µM | 390 ± 48 µM | good activity (good activity (GI50 = 1–10 μM)) | 4.9 ± 1.5 µM | – | – | ~10 µM | 12 ± 1.5 µM |
| Cc1ccc(-c2c[se]c(NN=Cc3ccccc3[N+](=O)[O-])n2)cc1 [Compound 2-Me, 2-(2-(2-nitrobenzylidene)hydrazinyl)-4-(p-tolyl)-1,3-selenazole] | – | 95 ± 8.1 µM | good activity (good activity (GI50 = 1–10 μM)) | 8.2 ± 1 µM | good activity (good activity (GI50 = 1–10 μM)) | 4.6 ± 1.2 µM | 20.2 ± 4.3 µM | > 100 µM | 17.2 ± 1.9% | – | good activity (good activity (GI50 = 1–10 μM)) | 7.4 ± 1.4 µM | 470 ± 41 µM | good activity (good activity (GI50 = 1–10 μM)) | 8.8 ± 2.2 µM | – | – | ~10 µM | 13 ± 1.3 µM |
| COc1ccc(-c2c[se]c(NN=Cc3ccccc3[N+](=O)[O-])n2)cc1 [Compound 2-OMe, 4-(4-methoxyphenyl)-2-(2-(2-nitrobenzylidene)hydrazinyl)-1,3-selenazole] | – | > 100 µM | – | 22 ± 2.3 µM | – | 46 ± 10 µM | 40.5 ± 3.8 µM | > 100 µM | 28 ± 4% | – | – | 49 ± 12 µM | 560 ± 53 µM | – | 22 ± 5.6 µM | – | – | 36 ± 8.6 µM | – |
| O=[N+]([O-])c1cccc(C=NNc2nc(-c3ccccc3)c[se]2)c1 [Compound 3, 2-(2-(3-nitrobenzylidene)hydrazinyl)-4-phenyl-1,3-selenazole] | – | 28 ± 0.8 µM | – | 40 ± 0.6 µM | – | 16 ± 4.8 µM | 174 ± 11.6 µM | > 100 µM | 32.7 ± 6.2% | – | – | 24 ± 7.1 µM | 420 ± 45 µM | good activity (good activity (GI50 = 1–10 μM)) | 6.1 ± 0.8 µM | – | – | 52 ± 13 µM | – |
| Cc1ccc(-c2c[se]c(NN=Cc3cccc([N+](=O)[O-])c3)n2)cc1 [Compound 3-Me, 2-(2-(3-nitrobenzylidene)hydrazinyl)-4-(p-tolyl)-1,3-selenazole] | – | 60 ± 9.5 µM | – | 55 ± 19 µM | – | 18 ± 4.5 µM | 152 ± 10.1 µM | > 100 µM | 13.4 ± 2.4% | – | – | 31 ± 4 µM | 480 ± 50 µM | – | 44 ± 15 µM | – | – | 46 ± 9.7 µM | – |
